≈ marks a conversion by molar mass, not a printed value. Like-named read-outs stand apart in the source and are kept apart here.
Legend:
[1] = Metabolic Stability assay, rat liver microsomes; type: in vitro ADME
Description: Metabolic Stability assay: The metabolic stability was determined by adding compound dissolved in DMSO to human or rat, liver microsomes. Briefly, assays were run with a starting concentration of 1 μM test article. The reaction was started by addition of NADPH regeneration components at 37° C. at which time an aliquot was immediately quenched in ice-cold acetonitrile/MeOH/H2O solution. Reaction mixture was incubated at 37° C. on a shaker, and additional aliquots were taken at 7, 15, 30 and 60 minutes. Following quench and centrifugation, samples were analyzed on HPLC/MS/MS.

[2] = target: hTRPV3 (Homo sapiens (Human), UniProt Q8NET8); test: Whole-cell patch clamp, hTRPV3 Phase 1 / Phase 2 currents; type: cell-based
Sequence of hTRPV3 (Q8NET8 whole entry): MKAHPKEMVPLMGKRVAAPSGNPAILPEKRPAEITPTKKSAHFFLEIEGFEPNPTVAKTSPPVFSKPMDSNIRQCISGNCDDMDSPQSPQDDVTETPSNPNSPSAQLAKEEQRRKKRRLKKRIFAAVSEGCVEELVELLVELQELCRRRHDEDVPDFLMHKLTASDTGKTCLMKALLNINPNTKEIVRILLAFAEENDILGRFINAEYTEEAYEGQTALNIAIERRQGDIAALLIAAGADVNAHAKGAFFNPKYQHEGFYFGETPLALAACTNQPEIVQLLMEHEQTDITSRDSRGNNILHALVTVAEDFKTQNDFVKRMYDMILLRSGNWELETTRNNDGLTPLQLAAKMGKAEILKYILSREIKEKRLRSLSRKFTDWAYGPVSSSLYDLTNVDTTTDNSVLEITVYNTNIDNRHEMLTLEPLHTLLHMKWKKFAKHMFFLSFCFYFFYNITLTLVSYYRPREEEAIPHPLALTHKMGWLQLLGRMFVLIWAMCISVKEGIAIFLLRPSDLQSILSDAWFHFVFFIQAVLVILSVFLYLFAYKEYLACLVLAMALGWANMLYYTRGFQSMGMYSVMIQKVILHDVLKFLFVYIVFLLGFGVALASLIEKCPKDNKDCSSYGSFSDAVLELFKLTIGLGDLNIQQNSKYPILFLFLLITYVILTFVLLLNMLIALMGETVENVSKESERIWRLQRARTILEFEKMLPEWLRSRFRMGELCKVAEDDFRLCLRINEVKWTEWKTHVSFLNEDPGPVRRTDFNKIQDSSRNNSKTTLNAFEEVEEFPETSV
Method in brief: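 Currents are activated by 20 μM 2-APB or by perfusate at 28 °C or warmer, in Ringer's solution, and quantified at ±80 mV.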

[3] = Aqueous solubility assay in Normal Ringer Solution; settings: Normal Ringer Solution; for solubility at 40 min: saline or isotonic, kinetic from dmso stock; for Solubility Ringer (nM): room temperature
Description: Following vortex and incubation for a sufficient time (e.g. 40 minutes at room temperature), solutions were filtered, quenched with acetonitrile, and analyzed by Liquid Chromotography. Solubility Limits were determined by comparison to a standard curve.

[4] = Phase 1 current, human TRPV3, read-out: hTRPV3 (nM) Phase 1
[5] = Phase 1 current, inward, whole-cell patch clamp, read-out: hTRPV3 Patch P1 Inwd
[6] = Phase 1 current, read-out: hTRPV3 (nM) (Phase 1)
[7] = Phase 2 current, inward, whole-cell patch clamp, read-out: hTRPV3 Patch P2 Inwd
[8] = Phase 2 current, read-out: hTRPV3 (nM) (Phase 2)

SMILES | half-life at 1 μM ([1]; read-out: LM T1/2 (min) rat) [min] | IC50 [2, 4] [nM] | IC50 [2, 5] [nM] | IC50 [2, 6] [nM] | solubility at 40 min [3] [µM] | further results
Cc1cccc(C(=O)N2CCC(c3ccc(Oc4ccccc4C(C)C)cc3C(N)=O)C2)n1 (stereo not shown) [Compound 2-33, 5-(2-isopropylphenoxy)-2-(1-(6-methylpicolinoyl)pyrrolidin-3-yl)benzamide] | 11 | 645 | 100 to 1000 | – | – | –
O=C(c1cccc(Cl)n1)N1CCC(c2ccc(-c3ccccc3C3CC3)cc2CO)C1 (stereo not shown) [Compound 2-57, (6-chloropyridin-2-yl)(3-(2′-cyclopropyl-3-(hydroxymethyl)biphenyl-4-yl)pyrrolidin-1-yl)methanone] | 32.3 | 7.34 | < 10 | – | – | –
CC(C)c1ccccc1Oc1ccc(C2CCN(C(=O)Cc3ccccn3)C2)c(CO)c1 (stereo not shown) [Compound 2-116] | 3.62 | ~3500 | – | – | – | IC50 ([2]; Phase 2 current, human TRPV3, read-out: hTRPV3 (nM) Phase 2): 2600 nM
CCc1ccccc1-c1ccc(C2CCN(C(=O)c3ccc(F)cn3)C2)c(C(N)=O)c1 (stereo not shown) [Compound 2-34, 2′-ethyl-4-(1-(5-fluoropicolinoyl)pyrrolidin-3-yl)biphenyl-3-carboxamide] | 26.4 | 337 | 100 to 1000 | – | – | –
CCc1cc(F)ccc1Oc1ccc(N2CC[C@H](Oc3ccccn3)C2)c(CO)c1 [Compound 1-330] | – | – | 10 to 100 | 49.5 | – | half-life at 1 μM ([1]; read-out: LM T1/2 (min) (rat)): 24.8 min; IC50 [2, 7]: 10 to 100 nM; IC50 [2, 8]: 56.6 nM
CC(C)c1ccccc1Oc1ccc(C2CCN(C(=O)c3ccc(Cl)cn3)C2)c(C(N)=O)c1 (stereo not shown) [Compound 2-32, 2-(1-(5-chloropicolinoyl)pyrrolidin-3-yl)-5-(2-isopropylphenoxy)benzamide] | 6.86 | 677 | 100 to 1000 | – | – | –
CC(C)c1ccccc1-c1ccc(C2CCN(C(=O)c3ncccc3Cl)C2)c(CO)c1 (stereo not shown) [Compound 2-36] | 11.2 | 39.3 | 10 to 100 | – | – | –
Cc1ccc(C(=O)N2CCC(c3ccc(-c4ccccc4C(C)C)cc3CO)C2)nc1 (stereo not shown) [Compound 2-79] | – | 19.8 | 10 to 100 | – | 7.38 (≈ 3.06 µg/mL) | –
OCc1cc(-c2ccccc2)ccc1N1CC[C@H](Oc2nc(C(F)(F)F)cs2)C1 [Compound 1-395, (S)-(4-(3-(4-(trifluoromethyl)thiazol-2-yloxy)pyrrolidin-1-yl)biphenyl-3-yl)methanol] | – | – | > 1000 | > 3200 | – | IC50 [2, 7]: > 1000 nM; IC50 [2, 8]: > 3200 nM; Solubility Ringer (nM) [3]: BLQ
CC(C)(C)OC(=O)N1CC=C(c2ccc(N3CC[C@H](Oc4ccc(C(F)(F)F)cn4)C3)c(CO)c2)CC1 [Compound 1-272, (S)-tert-butyl 4-(3-(hydroxymethyl)-4-(3-(5-(trifluoromethyl)pyridin-2-yloxy)pyrrolidin-1-yl)phenyl)-5,6-dihydropyridine-1 (2H)-carboxylate] | – | – | > 1000 | > 3200 | – | Solubility Ringer (nM) [3]: BLQ
CC(C)(C)OC(=O)N1CCC(c2ccc(N3CC[C@H](Oc4ccc(C(F)(F)F)cn4)C3)c(CO)c2)CC1 [Compound 1-273, (S)-tert-butyl 4-(3-(hydroxymethyl)-4-(3-(5-(trifluoromethyl)pyridin-2-yloxy)pyrrolidin-1-yl)phenyl)piperidine-1-carboxylate] | – | – | > 1000 | > 3200 | – | Solubility Ringer (nM) [3]: BLQ
NC(=O)c1cc(-c2ccccn2)ccc1N1CC[C@H](Oc2ccc(C(F)(F)F)cn2)C1 [Compound 1-81, (S)-5-(pyridin-2-yl)-2-(3-(5-(trifluoromethyl)pyridin-2-yloxy)pyrrolidin-1-yl)benzamide] | – | – | > 1000 | > 3200 | ~1.4 (≈ 0.6 µg/mL) | IC50 [2, 7]: > 1000 nM; IC50 [2, 8]: 2190 nM
OC[C@@H]1C[C@@H](Oc2ccc(C(F)(F)F)cn2)CN1c1ccc(-c2ccccc2)cc1 [Compound 1-175] | – | – | > 1000 | > 3200 | ~0.68 (≈ 0.282 µg/mL) | IC50 [2, 7]: > 1000 nM; IC50 [2, 8]: > 3200 nM
N#Cc1ccccc1-c1ccc(N2CC[C@H](Oc3ccc(C(F)(F)F)cn3)C2)c(CO)c1 [Compound 1-155] | – | – | 100 to 1000 | – | – | Solubility Ringer (nM) [3]: BLQ
Cc1ccccc1C(O)c1ccc(N2CC[C@H](Oc3ncccc3F)C2)c(CO)c1 (stereo partly drawn) [Compound 1-231, (4-((S)-3-(3-fluoropyridin-2-yloxy)pyrrolidin-1-yl)-3-(hydroxymethyl)phenyl)(o-tolyl)methanol] | – | – | – | – | > 26.8 | half-life at 1 μM ([1]; read-out: LM T1/2 (min) (rat)): 16.3 min
NS(=O)(=O)c1cc(-c2ccccc2)ccc1N1CC[C@@H](Oc2ccc(C(F)(F)F)cn2)C1 [Compound 1-102] | – | – | > 1000 | – | ~0.23 (≈ 0.107 µg/mL) | IC50 [2, 7]: > 1000 nM
CCc1ccccc1-c1ccc(C2CCN(C(=O)c3ccccn3)C2)c(CO)c1 (stereo not shown) [Compound 2-27, (3-(2′-ethyl-3-(hydroxymethyl)biphenyl-4-yl)pyrrolidin-1-yl)(pyridin-2-yl)methanone] | 12.9 | 73 | 10 to 100 | – | – | –
CC(C)c1ccccc1Oc1ccc(C2CCN(C(=O)c3ccc(Cl)cn3)C2)c(CO)c1 (stereo not shown) [Compound 2-17, (5-chloropyridin-2-yl)(3-(2-(hydroxymethyl)-4-(2-isopropylphenoxy)phenyl)pyrrolidin-1-yl)methanone] | 7.93 | 57.4 | 10 to 100 | – | – | –
OCc1cc(Oc2cccc(Cl)c2)ccc1N1CC[C@H](Oc2ncccc2Cl)C1 [Compound 1-248, (S)-(5-(3-chlorophenoxy)-2-(3-(3-chloropyridin-2-yloxy)pyrrolidin-1-yl)phenyl)methanol] | – | – | 10 to 100 | 12.3 | – | Solubility Ringer (nM) [3]: BLQ
COc1ccccc1-c1ccc(N2CC[C@H](Oc3ccc(F)cn3)C2)c(CO)n1 [Compound 1-209, (S)-(3-(3-(5-fluoropyridin-2-yloxy)pyrrolidin-1-yl)-6-(2-methoxyphenyl)pyridin-2-yl)methanol] | – | – | > 1000 | 3470 | ~2.3 (≈ 0.909 µg/mL) | –
Cc1cccnc1C(=O)N1CCC(c2ccc(Oc3ccccc3C(C)C)cc2CO)C1 (stereo not shown) [Compound 2-18, (3-(2-(hydroxymethyl)-4-(2-isopropylphenoxy)phenyl)pyrrolidin-1-yl)(3-methylpyridin-2-yl)methanone] | 7.81 | 314 | 100 to 1000 | – | – | –
N#Cc1ccc(O[C@H]2CCN(c3ccc(-c4ccccc4)cc3CO)C2)nc1 [Compound 1-143, (S)-6-(1-(3-(hydroxymethyl)biphenyl-4-yl)pyrrolidin-3-yloxy)nicotinonitrile] | – | – | 100 to 1000 | 337 | 1.4 (≈ 0.52 µg/mL) | –
CCc1ccccc1-c1ccc(N2CC[C@H](Oc3ncccc3F)C2)c(CO)n1 [Compound 1-204, (S)-(6-(2-ethylphenyl)-3-(3-(3-fluoropyridin-2-yloxy)pyrrolidin-1-yl)pyridin-2-yl)methanol] | – | – | > 1000 | 2670 | > 1.8 | –
OCc1cc(-c2ccccc2)ncc1N1CC[C@H](Oc2ccc(C(F)(F)F)cn2)C1 [Compound 1-158] | – | – | 100 to 1000 | 773 | ~2 (≈ 0.831 µg/mL) | IC50 [2, 7]: 100 to 1000 nM; IC50 [2, 8]: 747 nM
OCc1ccccc1-c1ccc(N2CC[C@H](Oc3ccc(C(F)(F)F)cn3)C2)c(CO)c1 [Compound 1-174, (S)-(4′-(3-(5-(trifluoromethyl)pyridin-2-yloxy)pyrrolidin-1-yl)biphenyl-2,3′-diyl)dimethanol] | – | – | 100 to 1000 | > 320 | > 0.67 | IC50 [2, 7]: > 1000 nM; IC50 [2, 8]: > 3200 nM
